Results reported in the supplement of paper PMC10307832.

Compound: COc1ccc(-c2ccc3c(N4CCOC[C@@H]4C)nc(N4CCOC[C@@H]4C)nc3n2)cc1CO [AZD8055] + COc1cc2c(Oc3ccc(NC(=O)C4(C(=O)Nc5ccc(F)cc5)CC4)cc3F)ccnc2cc1OCCCN1CCOCC1 [Foretinib] (partner 0.25 µM)
Assay: relative viability (nuclei count vs DMSO), 5 days (fraction); higher = more cells survive
How it was run: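 For relative viability, nuclei counts in treated wells were divided by those in vehicle wells. Lung cancer cell lines had been pin-tool dosed in 1536-well plates the day after seeding and cultured for 5 days, then fixed and stained in one step (final 0.05% Triton X-100, 1% formaldehyde, 1 ug/ml Hoechst) and imaged at 4×. Doses were one drug alone or a fixed anchor-drug dose plus five library-drug doses (not always all listed) in √10 steps, and values are duplicate-plate medians.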

Cell Line: EPLC-272H
- relative viability (first compound 0.01 µM): 0.537
- relative viability (first compound 0.03162 µM): 0.418
- relative viability (first compound 0.1 µM): 0.378
- relative viability (first compound 0.3162 µM): 0.274
- relative viability (first compound 1 µM): 0.21

Cell Line: UMC-11
- relative viability (first compound 0.01 µM): 1
- relative viability (first compound 0.03162 µM): 0.8
- relative viability (first compound 0.1 µM): 0.555
- relative viability (first compound 0.3162 µM): 0.292
- relative viability (first compound 1 µM): 0.297

Cell Line: NCI-H1993
- relative viability (first compound 0.01 µM): 0.696
- relative viability (first compound 0.03162 µM): 0.584
- relative viability (first compound 0.1 µM): 0.51
- relative viability (first compound 0.3162 µM): 0.503
- relative viability (first compound 1 µM): 0.577

Cell Line: NCI-H596
- relative viability (first compound 0.01 µM): 0.79
- relative viability (first compound 0.03162 µM): 0.551
- relative viability (first compound 0.1 µM): 0.474
- relative viability (first compound 0.3162 µM): 0.319
- relative viability (first compound 1 µM): 0.335

Cell Line: NCI-H1793
- relative viability (first compound 0.01 µM): 0.457
- relative viability (first compound 0.03162 µM): 0.35
- relative viability (first compound 0.1 µM): 0.222
- relative viability (first compound 0.3162 µM): 0.189
- relative viability (first compound 1 µM): 0.183

Cell Line: NCI-H1563
- relative viability (first compound 0.01 µM): 0.913
- relative viability (first compound 0.03162 µM): 0.723
- relative viability (first compound 0.1 µM): 0.725
- relative viability (first compound 0.3162 µM): 0.635
- relative viability (first compound 1 µM): 0.645

Cell Line: NCI-H1395
- relative viability (first compound 0.01 µM): 0.982
- relative viability (first compound 0.03162 µM): 0.774
- relative viability (first compound 0.1 µM): 0.835
- relative viability (first compound 0.3162 µM): 0.505
- relative viability (first compound 1 µM): 0.528

Cell Line: NCI-H1299
- relative viability (first compound 0.01 µM): 1.19
- relative viability (first compound 0.03162 µM): 1.18
- relative viability (first compound 0.1 µM): 1.14
- relative viability (first compound 0.3162 µM): 0.863
- relative viability (first compound 1 µM): 0.528

Cell Line: HCC-827
- relative viability (first compound 0.01 µM): 1.14
- relative viability (first compound 0.03162 µM): 0.98
- relative viability (first compound 0.1 µM): 1.02
- relative viability (first compound 0.3162 µM): 0.424
- relative viability (first compound 1 µM): 0.337

Cell Line: ChaGo-K-1
- relative viability (first compound 0.01 µM): 1.07
- relative viability (first compound 0.03162 µM): 0.862
- relative viability (first compound 0.1 µM): 0.81
- relative viability (first compound 0.3162 µM): 0.61
- relative viability (first compound 1 µM): 0.621

Cell Line: NCI-H2228
- relative viability (first compound 0.01 µM): 0.739
- relative viability (first compound 0.03162 µM): 0.54
- relative viability (first compound 0.1 µM): 0.385
- relative viability (first compound 0.3162 µM): 0.166
- relative viability (first compound 1 µM): 0.241

Cell Line: NCI-H2170
- relative viability (first compound 0.01 µM): 1.07
- relative viability (first compound 0.03162 µM): 1.04
- relative viability (first compound 0.1 µM): 0.868
- relative viability (first compound 0.3162 µM): 0.451
- relative viability (first compound 1 µM): 0.397

Cell Line: EMC-BAC-2
- relative viability (first compound 0.01 µM): 0.965
- relative viability (first compound 0.03162 µM): 0.846
- relative viability (first compound 0.1 µM): 0.809
- relative viability (first compound 0.3162 µM): 0.393
- relative viability (first compound 1 µM): 0.347

Cell Line: A549
- relative viability (first compound 0.01 µM): 0.929
- relative viability (first compound 0.03162 µM): 0.831
- relative viability (first compound 0.1 µM): 0.638
- relative viability (first compound 0.3162 µM): 0.123
- relative viability (first compound 1 µM): 0.0603

Cell Line: NCI-H23
- relative viability (first compound 0.01 µM): 1.02
- relative viability (first compound 0.03162 µM): 0.841
- relative viability (first compound 0.1 µM): 0.584
- relative viability (first compound 0.3162 µM): 0.451
- relative viability (first compound 1 µM): 0.347

Cell Line: RERF-LC-KJ
- relative viability (first compound 0.01 µM): 0.963
- relative viability (first compound 0.03162 µM): 0.754
- relative viability (first compound 0.1 µM): 0.771
- relative viability (first compound 0.3162 µM): 0.535
- relative viability (first compound 1 µM): 0.392

Cell Line: NCI-H358
- relative viability (first compound 0.01 µM): 1.03
- relative viability (first compound 0.03162 µM): 0.887
- relative viability (first compound 0.1 µM): 0.585
- relative viability (first compound 0.3162 µM): 0.264
- relative viability (first compound 1 µM): 0.181

Cell Line: LC-2-ad
- relative viability (first compound 0.01 µM): 1.05
- relative viability (first compound 0.03162 µM): 0.855
- relative viability (first compound 0.1 µM): 0.652
- relative viability (first compound 0.3162 µM): 0.58
- relative viability (first compound 1 µM): 0.469

Cell Line: HCC-15
- relative viability (first compound 0.01 µM): 1.05
- relative viability (first compound 0.03162 µM): 0.969
- relative viability (first compound 0.1 µM): 0.755
- relative viability (first compound 0.3162 µM): 0.537
- relative viability (first compound 1 µM): 0.445

Cell Line: NCI-H2405
- relative viability (first compound 0.01 µM): 1.03
- relative viability (first compound 0.03162 µM): 0.977
- relative viability (first compound 0.1 µM): 0.816
- relative viability (first compound 0.3162 µM): 0.432
- relative viability (first compound 1 µM): 0.381

Cell Line: LXF-289
- relative viability (first compound 0.01 µM): 1.05
- relative viability (first compound 0.03162 µM): 1.02
- relative viability (first compound 0.1 µM): 0.962
- relative viability (first compound 0.3162 µM): 0.763
- relative viability (first compound 1 µM): 0.72

Cell Line: CAL-12T
- relative viability (first compound 0.01 µM): 1.25
- relative viability (first compound 0.03162 µM): 1.22
- relative viability (first compound 0.1 µM): 1.01
- relative viability (first compound 0.3162 µM): 0.414
- relative viability (first compound 1 µM): 0.279

Cell Line: COR-L23
- relative viability (first compound 0.01 µM): 1.24
- relative viability (first compound 0.03162 µM): 0.893
- relative viability (first compound 0.1 µM): 0.822
- relative viability (first compound 0.3162 µM): 0.353
- relative viability (first compound 1 µM): 0.233

Cell Line: NCI-H1755
- relative viability (first compound 0.01 µM): 0.885
- relative viability (first compound 0.03162 µM): 0.788
- relative viability (first compound 0.1 µM): 0.698
- relative viability (first compound 0.3162 µM): 0.485
- relative viability (first compound 1 µM): 0.373

Cell Line: NCI-H1437
- relative viability (first compound 0.01 µM): 1.38
- relative viability (first compound 0.03162 µM): 1.37
- relative viability (first compound 0.1 µM): 1.24
- relative viability (first compound 0.3162 µM): 0.869
- relative viability (first compound 1 µM): 0.482

Cell Line: NCI-H2085
- relative viability (first compound 0.01 µM): 0.945
- relative viability (first compound 0.03162 µM): 0.919
- relative viability (first compound 0.1 µM): 0.602
- relative viability (first compound 0.3162 µM): 0.278
- relative viability (first compound 1 µM): 0.329

Cell Line: IA-LM
- relative viability (first compound 0.01 µM): 0.933
- relative viability (first compound 0.03162 µM): 0.659
- relative viability (first compound 0.1 µM): 0.567
- relative viability (first compound 0.3162 µM): 0.169
- relative viability (first compound 1 µM): 0.126

Cell Line: H3255
- relative viability (first compound 0.01 µM): 0.562
- relative viability (first compound 0.03162 µM): 0.769
- relative viability (first compound 0.1 µM): 0.786
- relative viability (first compound 0.3162 µM): 0.418
- relative viability (first compound 1 µM): 0.308

Cell Line: NCI-H650
- relative viability (first compound 0.01 µM): 1.12
- relative viability (first compound 0.03162 µM): 0.995
- relative viability (first compound 0.1 µM): 0.773
- relative viability (first compound 0.3162 µM): 0.541
- relative viability (first compound 1 µM): 0.368

Cell Line: LCLC-103H
- relative viability (first compound 0.01 µM): 0.72
- relative viability (first compound 0.03162 µM): 0.616
- relative viability (first compound 0.1 µM): 0.583
- relative viability (first compound 0.3162 µM): 0.359
- relative viability (first compound 1 µM): 0.281

Cell Line: LOU-NH91
- relative viability (first compound 0.01 µM): 0.982
- relative viability (first compound 0.03162 µM): 0.891
- relative viability (first compound 0.1 µM): 0.761
- relative viability (first compound 0.3162 µM): 0.562
- relative viability (first compound 1 µM): 0.561

Cell Line: NCI-H1650
- relative viability (first compound 0.01 µM): 0.998
- relative viability (first compound 0.03162 µM): 1.02
- relative viability (first compound 0.1 µM): 0.886
- relative viability (first compound 0.3162 µM): 0.778
- relative viability (first compound 1 µM): 0.449

Cell Line: NCI-H3122
- relative viability (first compound 0.01 µM): 0.97
- relative viability (first compound 0.03162 µM): 1.02
- relative viability (first compound 0.1 µM): 1.05
- relative viability (first compound 0.3162 µM): 0.396
- relative viability (first compound 1 µM): 0.401

Cell Line: PC-3 [JPC-3]
- relative viability (first compound 0.01 µM): 1.12
- relative viability (first compound 0.03162 µM): 1.12
- relative viability (first compound 0.1 µM): 1.1
- relative viability (first compound 0.3162 µM): 0.774
- relative viability (first compound 1 µM): 0.492

Cell Line: Calu-6
- relative viability (first compound 0.01 µM): 0.878
- relative viability (first compound 0.03162 µM): 0.839
- relative viability (first compound 0.1 µM): 0.691
- relative viability (first compound 0.3162 µM): 0.439
- relative viability (first compound 1 µM): 0.346

Cell Line: NCI-H1651
- relative viability (first compound 0.01 µM): 0.702
- relative viability (first compound 0.03162 µM): 0.774
- relative viability (first compound 0.1 µM): 0.575
- relative viability (first compound 0.3162 µM): 0.363
- relative viability (first compound 1 µM): 0.263

Cell Line: NCI-H2087
- relative viability (first compound 0.01 µM): 1.04
- relative viability (first compound 0.03162 µM): 0.857
- relative viability (first compound 0.1 µM): 0.676
- relative viability (first compound 0.3162 µM): 0.461
- relative viability (first compound 1 µM): 0.315
